Assay results taken from patent US20240041830A1, “CIRCULATING BIOMARKERS OF RESPONSE TO PD-1/PD-L1 BLOCKADE AND GSK-3 INHIBITION” (Brown University, priority 2022, published 2024).

Tested on: tumor biopsies (colorectal cancer, pancreatic cancer)
Assay: GeoMx Digital Spatial Profiling of patient tumor biopsies
Assay type: in vivo, human
Text: Digital spatial profiling. An Agilent Technologies hybridization oven was used for baking tissue onto slides (Agilent, Santa Clara, CA, USA). A NanoString GeoMx® Digital Spatial Profiler (DSP) instrument (NanoString, Seattle, WA, USA) was used to scan slides, identify regions of interest (ROIs), and collect photocleavable barcodes according to manufacturer instructions. A custom panel was designed to include the following proteins: Ms IgG1, Ms IgG2a, Rb IgG, GAPDH, Histone H3, S6, Beta-2-microglobulin, CD31, CD45, Ki-67, ARG1, CD11 b, CD11 c, CD14, CD163, CD39, CD40, CD68, HLA-DR, GZMB, CD20, CD3, CD34, CD4, CD56, CD66b, CD8, Foxp3, Fibronectin, 4-1BB, B7-H3, CTLA4, GITR, IDO1, LAG3, OX40L, STING, Tim-3, VISTA, Bcl-2, ER-α, EpCAM, Her2, MART1, NY-ESO-1, PR, PTEN, PanCk, SMA, CD127, CD25, CD27, CD44, CD45RO, CD80, ICOS, PD-1, PD-L1, and PD-L2. An Eppendorf MasterCycler Gradient Thermal Cycler was used to generate the Illumina sequencing libraries from the photocleaved tags. (Eppendorf, Hamburg, Germany). An Agilent Fragment Analyzer (RRID: SCR_019417) was used for library size distribution analysis with a high-sensitivity NGS Fragment Kit (Cat #DNF-474-0500, Agilent, Santa Clara, CA, USA). qPCR for quantification was run using an Illumina-compatible KAPA Library Quantification Kits (ROX Low) (cat #KK4873) on an Applied Biosystems ViiA 7 Real-Time qPCR/PCR Thermal Cycler System (Applied Biosystems, San Francisco, CA, USA) and was analyzed using QuantStudio software (RRID: SCR_018712). Sequencing was performed using a NextSeq 500/550 High Output Kit v2.5 (75 Cycles) kit (cat #20024906) on an Illumina Sequencing NextSeq 550 System (RRID: SCR_016381, Illumina, San Diego, CA, USA). The initial annotated dataset went through quality control (QC) to check if housekeeper genes and background (isotype) control molecules were themselves correlated with the predictors of interest. Every ROI was tested for raw sequencing reads (segments with <1000 raw reads were removed), % sequencing saturation, defined as (1-deduplicated reads/aligned reads)%, segments below ˜50% were not analyzed), and nuclei count per segment, for which >100 nuclei per segment is generally recommended. Both immunoglobulins (lgGs) and housekeeper genes were highly correlated with one another. Signal to noise (SNR) ratio was calculated using background probes and all probes were detected above the background in at least one ROI. data were normalized based on background IgG expression and all normalization factors were well distributed. Data analysis and visualization were generated using R (RRID: SCR_001905; R Development Core Team, 2020).
PanCK+ expression of immunosuppressive CD39 negatively correlated with time-on-treatment (Tx time) while CD45+ expression of monocyte/macrophage marker CD163 positively correlated with Tx time. The inventors used GeoMx Digital Spatial Profiling (DSP) technology to profile the expression of fifty-nine proteins in tumor biopsies (N=12) from patients treated with elraglusib (N=7). A total of 42% (N=5) of the tumor biopsies analyzed were collected near or before treatment start (pre-treatment) and 58% (N=7) of the biopsies analyzed were collected from post-treatment (average time-on-treatment (Tx time) at post-treatment biopsy: 270 days) (FIG. 7A). Primary tumor types included colorectal cancer (N=4, 33%) and pancreatic cancer (N=8, 67%), while metastatic biopsy tissue sites included lung (N=2, 17%), liver (N=7, 58%), rectum (N=2, 17%), and pleura (N=1, 8%). the inventors analyzed five paired tumor biopsies ([…], 83%), and two unpaired biopsies (N=2 slides total, 17%). Half (N=6, 50%) of the tumor sections were needle biopsies and half (N=6, 50%) were tissue biopsies. All patients included in this analysis were considered responders based on the definition used in the Phase 1 trial that treatment response is equal to disease control greater than 16 weeks. […]

[1] = CD45+ regions, post- vs pre-treatment biopsies
[2] = tumor-infiltrating CD45+ segments, post- vs pre-treatment

With `Cn1cc(C2=C(c3coc4ccc(F)cc34)C(=O)NC2=O)c2cc3c(cc21)OCO3` [elraglusib] the “CD11 b protein expression” value [1] was “decreased”, the “CD11c protein expression” value [1] was “decreased” and the CD40 protein expression [1] was “decreased”. For the same molecule, the CD66b protein expression [1] was “decreased”, the CD68 protein expression [1] was “decreased” and the CD80 protein expression [1] was “decreased”. For the same molecule, the IDO1 protein expression [1] was “decreased”, the LAG3 protein expression [1] was “decreased” and the PD-1 protein expression [1] was “decreased”. For the same molecule, the PD-L1 protein expression [1] was “decreased”, the PD-L2 protein expression [1] was “decreased” and the VISTA protein expression [1] was “decreased”. For the same molecule, the PD-L1 expression (PanCK+ segments, post- vs pre-treatment biopsies) was “downregulation”, the ARG1 protein expression [2] was “reduced” and the B2M protein expression [2] was “reduced”. For the same molecule, the B7-H3 protein expression [2] was “elevated”, the CD11c protein expression [2] was “reduced” and the CD34 protein expression [2] was “reduced”. For the same molecule, the CD44 protein expression [2] was “reduced”, the CD45R0 protein expression [2] was “reduced” and the CD56 protein expression [2] was “reduced”. For the same molecule, the CD66b protein expression [2] was “reduced”, the CD68 protein expression [2] was “reduced” and the CD80 protein expression [2] was “reduced”. For the same molecule, the CD127 protein expression [2] was “elevated”, the CTLA4 protein expression [2] was “elevated” and the GITR protein expression [2] was “reduced”. For the same molecule, the HLA-DR protein expression [2] was “reduced”, the IDO1 protein expression [2] was “reduced” and the Ki-67 protein expression [2] was “reduced”. The OX4OL protein expression [2] was “elevated”, the PD-1 protein expression [2] was “reduced” and the PD-L1 protein expression [2] was “reduced”. For the same molecule, the PD-L2 protein expression [2] was “reduced”, the PTEN protein expression [2] was “reduced” and the VISTA protein expression [2] was “reduced”.
